According to patent US20170119742A1, “MEDICAMENT FOR PREVENTING AND/OR TREATING STRESS DISEASES” (ONO PHARMACEUTICAL CO., LTD., priority 2014, published 2017):

Columns and labels:
brain TSPO [1] = biological target: T1, brain TSPO (Rattus norvegicus, UniProt P16257); test: Comparison of radiotracer in rat ex vivo brain occupancy (Biological example 5); settings: po, rat cerebral cortex, 3 h; for receptor occupancy at 0.03 mg/kg: 0.03 mg/kg oral; for receptor occupancy at 0.1 mg/kg: 0.1 mg/kg oral; for receptor occupancy at 0.3 mg/kg: 0.3 mg/kg oral; for receptor occupancy at 1 mg/kg: 1 mg/kg oral; for receptor occupancy at 3 mg/kg: 3 mg/kg oral
T1 construct: measured by using brain (cerebral cortex and hippocampus) homogenates of the vehicle treated group and the compound of the present invention treated group; from tissue; host or cells: Wistar rat brain (cerebral cortex, hippocampus) homogenate
Protocol: Next, brain TSPO occupancy of the compound of the present invention was measured by using brain (cerebral cortex and hippocampus) homogenates of the vehicle treated group and the compound of the present invention treated group, using [^3H] PK11195 as a radiotracer. PK11195 was dissolved in dimethyl sulfoxide (DMSO) to prepare a 4 mmol/L solution. After preparing an ethanol solution of 100 nmol/L [^3H] PK11195 (PerkinElmer, Inc.), the solution was diluted 50-fold with 50 mmol/L HEPES buffer (Sigma-Aldrich Co.). In the case of determining the total binding amount of the radiotracer, 50 mmol/L HEPES (99 μL) and DMSO (1 μL) were added to Nunc MiniSorp (trade name, 12×75 mm, Thermo Fisher Scientific Inc.). In the case of determining the nonspecific binding amount of the radiotracer, 4 mmol/L PK11195 (1 μL) was substituted for DMSO (1 μL). The brain homogenate (50 μL) derived from cerebral cortex or the hippocampus was added to the tube. Then [^3H] PK11195 (50 μL) (cerebral cortex: final concentration 0.4532 nmol/L, hippocampus: final concentration 0.4520 nmol/L) was added and stirred, and the mixture was incubated for 90 minutes at 4° C. After completion of the reaction, ice-cold 50 mmol/L HEPES (2 mL) was added to the tube, and then the mixture was suction filtered on a glass fiber filter (GF/B, Brandel Inc.) which pretreated with 0.3 w/v % polyethyleneimine (Sigma-Aldrich Co.), to collect the brain homogenate. After drying the glass fiber filter, the absorbing part of the brain homogenate was transferred to a liquid scintillation vial. ACS-II scintillation cocktail (7 mL) was added to the liquid scintillation vial and stirred, and the radioactivity was measured by liquid scintillation counter (TRI-CARB2900TR, PerkinElmer Life and Analytical Sciences Inc.). Specific binding amount (dpm) of [3H] PK11195 in each brain homogenate was set to a value obtained by subtracting the nonspecific binding amount (dpm) from the total binding amount (dpm). TSPO occupancy (%) in cerebral cortex and hippocampus, of the compound of the present invention treated group, were calculated according to the following equation.
TSPO Occupancy (%)=(1−X/Y)×100
X: Specific binding amount (dpm) in each brain homogenate Y: Average value (dpm) of specific binding amount in control group
The vehicle (0.5 w/v % methylcellulose 400 cP solution) or the compound of the present invention (0.03, 0.1, 0.3, 1 or 3 mg/kg) was orally administered to male Sic: Wistar rats (Japan SLC, Inc., at the time of use: 11 weeks old). After 3 hours of the administration, in the same manner as Biological example 1, brain TSPO occupancy of the compound of the present invention relative to the specific binding of the vehicle control group was measured by measuring the specific binding amount of [^3H] PK11195 or [^3H] PBR28 (Sekisui Medical Co., Ltd.) of brain (cerebral cortex) homogenates (n=8 in each group). As a result, the average TSPO occupancy of 0.03, 0.1, 0.3, 1 and 3 mg/kg group of the compound of the present invention was […] in the cerebral cortex when [^3H] PK11195 was used as a radiotracer. On the other hand, the average TSPO occupancy was 6.5, 11.5, 40.4, 77.7 and 90.2% in the cerebral cortex when [^3H] PBR28 was used as a radiotracer. […] PBR28 or [^3H] PK11195 radiotracer.

brain TSPO [2] = biological target: T2, brain TSPO (Homo sapiens, UniProt P30536); test: Prediction of brain TSPO occupancy in steady state, once daily in humans (Biological example 9); settings: trough concentration
T2 construct: from tissue; host or cells: living human brain (PET, healthy adults)
Text: A transition in the plasma concentration of the compound of the present invention, in a steady state when administered once daily, was predicted.

brain TSPO [3] = test: Brain occupancy using PET in monkeys, [11C] PBR28; assay type: in vivo; settings: rhesus monkey PET, [11C] PBR28, oral
Protocol: Male rhesus monkeys (Hamri Co., Ltd., at the time of use: 5 to 8 kg) were used. The vehicle (0.5 w/v % methylcellulose 400 cP solution) or the compound of the present invention (0.3 to 30 mg/kg) was once orally administered to 3 rhesus monkeys. After 2 hours of the administration, a PET measurement using [^11C] PBR28 was performed in the following manner.
Measurement equipment: PET camera; SHR-7700 (Hamamatsu Photonics K.K.) Image reconstruction: SHR Control II program (Hamamatsu Photonics K.K.) Change over time in brain radioactivity concentration and calculation of distribution volume: PMOD programs (PMOD Technologies Ltd.) Measurement methods: 120 minutes blank measurement and 30 minutes transmission measurement were performed using 68Ge/68Ga calibration source. Next, [^11C] […]
The compound of the present invention (0.3 to 10 mg/kg) was orally administered twice daily for 3 days, once on day 4 to 3 rhesus monkeys. […] Brain TSPO occupancy relative to the distribution volume of the vehicle control group was calculated by calculating the distribution volume of the interest area (cerebellum, hippocampus, striatum, thalamus, occipital lobe, temporal lobe, frontal lobe and parietal lobe) from the brain radioactivity concentration time change of [^11C] PBR28 and arterial blood plasma radioactivity which was corrected in a non-metabolic rate.

T2 sequence (P30536 whole entry): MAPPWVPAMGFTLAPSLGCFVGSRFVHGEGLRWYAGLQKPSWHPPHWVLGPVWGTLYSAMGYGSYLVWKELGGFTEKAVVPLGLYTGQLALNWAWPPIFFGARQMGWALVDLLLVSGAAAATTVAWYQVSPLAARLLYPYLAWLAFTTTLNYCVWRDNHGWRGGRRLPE

Compound: COc1cc(Cl)ccc1[C@H]1c2[nH]c3cccc(F)c3c2C2(CC2)CN1C(C)=O [the compound of the present invention, (1S)-2-acetyl-1-(4-chloro-2-methoxyphenyl)-5-fluoro-1,2,3,9-tetrahydrospiro[β-carboline-4,1′-cyclopropane]]
- receptor occupancy at 0.03 mg/kg (brain TSPO [1]; [3H] PBR28): 6.5%
- receptor occupancy at 0.03 mg/kg (brain TSPO [1]; [3H] PK11195): -1.3%
- receptor occupancy at 0.1 mg/kg (brain TSPO [1]; [3H] PBR28): 11.5%
- receptor occupancy at 0.1 mg/kg (brain TSPO [1]; [3H] PK11195): 14.9%
- receptor occupancy at 0.3 mg/kg (brain TSPO [1]; [3H] PBR28): 40.4%
- receptor occupancy at 0.3 mg/kg (brain TSPO [1]; [3H] PK11195): 48.1%
- receptor occupancy at 1 mg/kg (brain TSPO [1]; [3H] PBR28): 77.7%
- receptor occupancy at 1 mg/kg (brain TSPO [1]; [3H] PK11195): 80.9%
- receptor occupancy at 3 mg/kg (brain TSPO [1]; [3H] PBR28): 90.2%
- receptor occupancy at 3 mg/kg (brain TSPO [1]; [3H] PK11195): 91.3%
- TSPO Occupancy (%) Predicted 5 percentile (brain TSPO [2]; dose 5 mg): 42.8%
- TSPO Occupancy (%) Predicted 95 percentile (brain TSPO [2]; dose 5 mg): 70.3%
- TSPO Occupancy (%) Predicted median (brain TSPO [2]; dose 5 mg): 57.4%
- TSPO Occupancy (%) Predicted 5 percentile (brain TSPO [2]; dose 10 mg): 59.8%
- TSPO Occupancy (%) Predicted 95 percentile (brain TSPO [2]; dose 10 mg): 82.3%
- TSPO Occupancy (%) Predicted median (brain TSPO [2]; dose 10 mg): 73.1%
- TSPO Occupancy (%) Predicted 5 percentile (brain TSPO [2]; dose 20 mg): 74.6%
- TSPO Occupancy (%) Predicted 95 percentile (brain TSPO [2]; dose 20 mg): 90.5%
- TSPO Occupancy (%) Predicted median (brain TSPO [2]; dose 20 mg): 84.4%
- TSPO Occupancy (%) Predicted 5 percentile (brain TSPO [2]; dose 30 mg): 81.6%
- TSPO Occupancy (%) Predicted 95 percentile (brain TSPO [2]; dose 30 mg): 93.4%
- TSPO Occupancy (%) Predicted median (brain TSPO [2]; dose 30 mg): 89.0%
- TSPO Occupancy (%) Predicted 5 percentile (brain TSPO [2]; dose 60 mg): 90.0%
- TSPO Occupancy (%) Predicted 95 percentile (brain TSPO [2]; dose 60 mg): 96.7%
- TSPO Occupancy (%) Predicted median (brain TSPO [2]; dose 60 mg): 94.2%
- TSPO Occupancy (%) Predicted 5 percentile (brain TSPO [2]; dose 100 mg): 95.3%
- TSPO Occupancy (%) Predicted 95 percentile (brain TSPO [2]; dose 100 mg): 98.4%
- TSPO Occupancy (%) Predicted median (brain TSPO [2]; dose 100 mg): 97.4%
- plasma concentration at which brain TSPO occupancy reaches about 50% (brain TSPO [3]): about 70 ng/mL
